Measurements as given in the kinase profiling compilation of Christmann-Franck et al. (2016).

Biological target: CAMK4 (human) (UniProt Q16566)
Assay: KINOMEscan competition binding
Settings: compound 10.0 µM

Chain of CAMK4 (human) (Q16566 whole entry, looked up): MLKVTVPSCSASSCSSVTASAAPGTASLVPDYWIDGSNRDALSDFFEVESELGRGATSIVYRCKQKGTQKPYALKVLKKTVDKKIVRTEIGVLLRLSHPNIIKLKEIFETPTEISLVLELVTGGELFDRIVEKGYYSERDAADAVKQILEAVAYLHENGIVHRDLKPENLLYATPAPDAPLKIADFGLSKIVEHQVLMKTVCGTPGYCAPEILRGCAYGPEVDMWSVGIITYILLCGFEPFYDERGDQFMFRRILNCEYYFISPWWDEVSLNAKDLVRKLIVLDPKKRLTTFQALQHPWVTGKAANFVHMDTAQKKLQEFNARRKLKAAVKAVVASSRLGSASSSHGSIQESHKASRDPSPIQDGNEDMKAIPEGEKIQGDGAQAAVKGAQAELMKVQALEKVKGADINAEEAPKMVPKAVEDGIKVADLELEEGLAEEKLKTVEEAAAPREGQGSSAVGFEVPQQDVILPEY

Structure (SMILES) | kinase still bound, per cent of control
CCN1CCN(Cc2ccc(NC(=O)c3ccc(C)c(/C=C/c4cnc(Nc5cc(N6CCNCC6)nc(C)n5)cn4)c3)cc2C(F)(F)F)CC1 | 100%
COc1cc(N2CCC(N3CCN(C)CC3)CC2)ccc1Nc1ncc(Cl)c(Nc2ccccc2S(=O)(=O)C(C)C)n1 | 0.5%
CCOc1cc(N2CCC(N3CCCCC3)CC2)ccc1Nc1nc(Nc2ccccc2S(=O)(=O)C(C)C)c2cn[nH]c2n1 | 1%

Test system: FLT3 (human), P36888 [D835Y]
Assay: KINOMEscan competition binding
Settings: compound 10.0 µM

Structure (SMILES) | kinase still bound, per cent of control
CCN1CCN(Cc2ccc(NC(=O)c3ccc(C)c(/C=C/c4cnc(Nc5cc(N6CCNCC6)nc(C)n5)cn4)c3)cc2C(F)(F)F)CC1 | 3.2%
CCOc1cc(N2CCC(N3CCCCC3)CC2)ccc1Nc1nc(Nc2ccccc2S(=O)(=O)C(C)C)c2cn[nH]c2n1 | 59%
CCN1CCN(Cc2ccc(NC(=O)c3ccc(C)c(Oc4ccnc5[nH]ccc45)c3)cc2C(F)(F)F)CC1 | 14%

Biological target: NEK2 (human) (UniProt P51955)
Sequence (P51955 whole entry, looked up): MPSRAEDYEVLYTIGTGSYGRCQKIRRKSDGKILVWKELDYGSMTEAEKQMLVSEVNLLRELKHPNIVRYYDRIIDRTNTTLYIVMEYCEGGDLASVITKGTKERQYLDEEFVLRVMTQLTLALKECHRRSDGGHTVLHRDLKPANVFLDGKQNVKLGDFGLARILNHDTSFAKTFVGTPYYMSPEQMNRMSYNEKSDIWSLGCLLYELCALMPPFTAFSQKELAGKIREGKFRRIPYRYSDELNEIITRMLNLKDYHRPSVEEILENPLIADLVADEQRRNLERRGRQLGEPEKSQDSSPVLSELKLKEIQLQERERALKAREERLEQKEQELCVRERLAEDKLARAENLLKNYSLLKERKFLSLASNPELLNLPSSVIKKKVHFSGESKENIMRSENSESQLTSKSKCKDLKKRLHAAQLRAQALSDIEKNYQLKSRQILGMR
Assay: KINOMEscan competition binding
Settings: compound 10.0 µM

Structure (SMILES) | kinase still bound, per cent of control
CCN1CCN(Cc2ccc(NC(=O)c3ccc(C)c(/C=C/c4cnc(Nc5cc(N6CCNCC6)nc(C)n5)cn4)c3)cc2C(F)(F)F)CC1 | 100%
COc1cc(N2CCC(N3CCN(C)CC3)CC2)ccc1Nc1ncc(Cl)c(Nc2ccccc2S(=O)(=O)C(C)C)n1 | 2.5%
CCOc1cc(N2CCC(N3CCCCC3)CC2)ccc1Nc1nc(Nc2ccccc2S(=O)(=O)C(C)C)c2cn[nH]c2n1 | 100%

Biological target: TTK (human) (UniProt P33981)
Sequence (P33981 whole entry, looked up): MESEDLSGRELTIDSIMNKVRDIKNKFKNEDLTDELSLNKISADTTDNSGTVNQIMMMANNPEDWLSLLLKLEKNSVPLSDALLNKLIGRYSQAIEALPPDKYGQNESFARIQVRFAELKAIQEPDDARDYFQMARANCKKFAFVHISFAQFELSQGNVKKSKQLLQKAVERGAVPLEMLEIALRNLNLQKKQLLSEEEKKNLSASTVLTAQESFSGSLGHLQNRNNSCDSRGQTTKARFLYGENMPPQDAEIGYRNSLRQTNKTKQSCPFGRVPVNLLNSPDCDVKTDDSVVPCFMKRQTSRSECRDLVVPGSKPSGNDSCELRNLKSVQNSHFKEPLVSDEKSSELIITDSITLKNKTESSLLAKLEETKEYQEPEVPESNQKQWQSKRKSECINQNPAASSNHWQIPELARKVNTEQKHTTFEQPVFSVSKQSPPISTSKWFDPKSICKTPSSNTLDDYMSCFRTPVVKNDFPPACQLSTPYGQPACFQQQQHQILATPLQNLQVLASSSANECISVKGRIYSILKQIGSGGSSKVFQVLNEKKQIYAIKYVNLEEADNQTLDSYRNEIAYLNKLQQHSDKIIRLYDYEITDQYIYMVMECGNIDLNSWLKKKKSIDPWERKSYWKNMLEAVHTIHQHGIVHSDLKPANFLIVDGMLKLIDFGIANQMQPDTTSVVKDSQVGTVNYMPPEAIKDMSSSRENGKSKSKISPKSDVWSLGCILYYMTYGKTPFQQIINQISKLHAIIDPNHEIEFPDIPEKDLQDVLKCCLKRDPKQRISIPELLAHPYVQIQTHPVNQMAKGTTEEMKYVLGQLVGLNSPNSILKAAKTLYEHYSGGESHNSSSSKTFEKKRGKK
Assay: KINOMEscan competition binding
Settings: compound 10.0 µM

Structure (SMILES) | kinase still bound, per cent of control
CCN1CCN(Cc2ccc(NC(=O)c3ccc(C)c(/C=C/c4cnc(Nc5cc(N6CCNCC6)nc(C)n5)cn4)c3)cc2C(F)(F)F)CC1 | 85%
COc1cc(N2CCC(N3CCN(C)CC3)CC2)ccc1Nc1ncc(Cl)c(Nc2ccccc2S(=O)(=O)C(C)C)n1 | 0%
CCOc1cc(N2CCC(N3CCCCC3)CC2)ccc1Nc1nc(Nc2ccccc2S(=O)(=O)C(C)C)c2cn[nH]c2n1 | 6.5%
CCN1CCN(Cc2ccc(NC(=O)c3ccc(C)c(Oc4ccnc5[nH]ccc45)c3)cc2C(F)(F)F)CC1 | 24%

Biological target: KIT (human) (UniProt P10721)
Sequence (P10721 whole entry, looked up): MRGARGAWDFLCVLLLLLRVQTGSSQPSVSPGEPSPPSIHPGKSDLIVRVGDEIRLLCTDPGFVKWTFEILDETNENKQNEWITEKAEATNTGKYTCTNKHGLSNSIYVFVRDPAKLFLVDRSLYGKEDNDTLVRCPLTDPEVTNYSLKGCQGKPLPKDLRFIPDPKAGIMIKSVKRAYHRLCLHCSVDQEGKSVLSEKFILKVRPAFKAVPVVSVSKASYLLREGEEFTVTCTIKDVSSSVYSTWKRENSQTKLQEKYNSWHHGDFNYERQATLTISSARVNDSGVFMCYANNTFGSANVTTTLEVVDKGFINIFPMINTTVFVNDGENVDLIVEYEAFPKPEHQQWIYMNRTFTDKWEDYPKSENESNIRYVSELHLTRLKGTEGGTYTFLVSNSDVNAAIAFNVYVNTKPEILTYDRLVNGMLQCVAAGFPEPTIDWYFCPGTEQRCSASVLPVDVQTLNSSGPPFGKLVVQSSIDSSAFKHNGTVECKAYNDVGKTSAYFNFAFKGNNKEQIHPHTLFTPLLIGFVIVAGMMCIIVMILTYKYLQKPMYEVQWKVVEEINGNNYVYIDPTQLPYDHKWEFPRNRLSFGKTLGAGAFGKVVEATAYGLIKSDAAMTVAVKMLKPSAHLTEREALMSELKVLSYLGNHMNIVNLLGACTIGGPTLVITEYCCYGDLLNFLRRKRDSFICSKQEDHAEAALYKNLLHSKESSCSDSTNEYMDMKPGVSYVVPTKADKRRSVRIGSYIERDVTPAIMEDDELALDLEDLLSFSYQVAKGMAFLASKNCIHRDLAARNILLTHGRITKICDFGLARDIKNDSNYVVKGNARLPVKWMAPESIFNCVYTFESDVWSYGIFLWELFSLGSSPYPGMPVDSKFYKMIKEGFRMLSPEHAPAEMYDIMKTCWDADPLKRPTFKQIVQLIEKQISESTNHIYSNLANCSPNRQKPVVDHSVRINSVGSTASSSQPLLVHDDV
Assay: KINOMEscan competition binding
Settings: compound 10.0 µM

Structure (SMILES) | kinase still bound, per cent of control
CCN1CCN(Cc2ccc(NC(=O)c3ccc(C)c(/C=C/c4cnc(Nc5cc(N6CCNCC6)nc(C)n5)cn4)c3)cc2C(F)(F)F)CC1 | 0.15%
COc1cc(N2CCC(N3CCN(C)CC3)CC2)ccc1Nc1ncc(Cl)c(Nc2ccccc2S(=O)(=O)C(C)C)n1 | 0.1%
CCOc1cc(N2CCC(N3CCCCC3)CC2)ccc1Nc1nc(Nc2ccccc2S(=O)(=O)C(C)C)c2cn[nH]c2n1 | 87%
CCN1CCN(Cc2ccc(NC(=O)c3ccc(C)c(Oc4ccnc5[nH]ccc45)c3)cc2C(F)(F)F)CC1 | 0%

Biological target: PAK4 (human) (UniProt O96013)
Sequence (O96013 whole entry, looked up): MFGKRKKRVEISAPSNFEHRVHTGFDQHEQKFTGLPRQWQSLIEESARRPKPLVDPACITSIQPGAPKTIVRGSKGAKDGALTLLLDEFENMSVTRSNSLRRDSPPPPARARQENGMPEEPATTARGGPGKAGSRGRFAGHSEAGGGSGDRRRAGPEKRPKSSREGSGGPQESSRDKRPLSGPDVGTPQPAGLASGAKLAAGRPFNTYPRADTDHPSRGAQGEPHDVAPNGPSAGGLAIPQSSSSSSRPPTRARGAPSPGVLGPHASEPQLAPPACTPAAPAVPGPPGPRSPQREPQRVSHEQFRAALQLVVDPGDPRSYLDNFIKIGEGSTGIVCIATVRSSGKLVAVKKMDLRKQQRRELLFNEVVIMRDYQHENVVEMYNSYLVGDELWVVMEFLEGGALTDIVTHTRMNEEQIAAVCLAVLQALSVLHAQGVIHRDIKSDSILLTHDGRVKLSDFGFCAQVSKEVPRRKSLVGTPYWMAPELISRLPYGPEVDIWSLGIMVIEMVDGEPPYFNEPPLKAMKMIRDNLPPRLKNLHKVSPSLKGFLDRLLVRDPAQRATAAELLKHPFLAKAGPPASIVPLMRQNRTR
Assay: KINOMEscan competition binding
Settings: compound 10.0 µM

Structure (SMILES) | kinase still bound, per cent of control
CCN1CCN(Cc2ccc(NC(=O)c3ccc(C)c(/C=C/c4cnc(Nc5cc(N6CCNCC6)nc(C)n5)cn4)c3)cc2C(F)(F)F)CC1 | 100%
COc1cc(N2CCC(N3CCN(C)CC3)CC2)ccc1Nc1ncc(Cl)c(Nc2ccccc2S(=O)(=O)C(C)C)n1 | 9.6%
CCOc1cc(N2CCC(N3CCCCC3)CC2)ccc1Nc1nc(Nc2ccccc2S(=O)(=O)C(C)C)c2cn[nH]c2n1 | 85%

Biological target: DCLK1 (human) (UniProt O15075)
Assay: KINOMEscan competition binding
Settings: compound 10.0 µM

Structure (SMILES) | kinase still bound, per cent of control
CCN1CCN(Cc2ccc(NC(=O)c3ccc(C)c(/C=C/c4cnc(Nc5cc(N6CCNCC6)nc(C)n5)cn4)c3)cc2C(F)(F)F)CC1 | 97%
COc1cc(N2CCC(N3CCN(C)CC3)CC2)ccc1Nc1ncc(Cl)c(Nc2ccccc2S(=O)(=O)C(C)C)n1 | 0%
CCOc1cc(N2CCC(N3CCCCC3)CC2)ccc1Nc1nc(Nc2ccccc2S(=O)(=O)C(C)C)c2cn[nH]c2n1 | 5.2%

Biological target: SYK (human) (UniProt P43405)
Assay: KINOMEscan competition binding
Settings: compound 10.0 µM

Structure (SMILES) | kinase still bound, per cent of control
CCN1CCN(Cc2ccc(NC(=O)c3ccc(C)c(/C=C/c4cnc(Nc5cc(N6CCNCC6)nc(C)n5)cn4)c3)cc2C(F)(F)F)CC1 | 15%
COc1cc(N2CCC(N3CCN(C)CC3)CC2)ccc1Nc1ncc(Cl)c(Nc2ccccc2S(=O)(=O)C(C)C)n1 | 3.4%
CCOc1cc(N2CCC(N3CCCCC3)CC2)ccc1Nc1nc(Nc2ccccc2S(=O)(=O)C(C)C)c2cn[nH]c2n1 | 100%
CCN1CCN(Cc2ccc(NC(=O)c3ccc(C)c(Oc4ccnc5[nH]ccc45)c3)cc2C(F)(F)F)CC1 | 6.2%

Biological target: NUAK2 (human) (UniProt Q9H093)
Sequence (Q9H093 whole entry, looked up): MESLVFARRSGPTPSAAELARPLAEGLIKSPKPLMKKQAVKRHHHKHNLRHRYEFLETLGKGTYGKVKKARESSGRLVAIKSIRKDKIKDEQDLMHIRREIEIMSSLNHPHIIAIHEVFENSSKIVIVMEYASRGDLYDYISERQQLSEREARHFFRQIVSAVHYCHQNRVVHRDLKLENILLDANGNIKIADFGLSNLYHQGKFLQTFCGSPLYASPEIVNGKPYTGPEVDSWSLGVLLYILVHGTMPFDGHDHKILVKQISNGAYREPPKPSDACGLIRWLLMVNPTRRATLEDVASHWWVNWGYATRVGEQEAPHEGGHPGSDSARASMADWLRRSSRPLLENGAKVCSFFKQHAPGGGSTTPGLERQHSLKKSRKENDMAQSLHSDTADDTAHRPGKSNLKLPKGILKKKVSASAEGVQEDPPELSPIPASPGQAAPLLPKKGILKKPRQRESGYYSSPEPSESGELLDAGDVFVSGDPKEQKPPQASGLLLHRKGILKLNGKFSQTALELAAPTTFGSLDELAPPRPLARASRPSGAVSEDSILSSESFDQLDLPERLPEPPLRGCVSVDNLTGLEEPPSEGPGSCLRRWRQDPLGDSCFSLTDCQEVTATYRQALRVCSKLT
Assay: KINOMEscan competition binding
Settings: compound 10.0 µM

Structure (SMILES) | kinase still bound, per cent of control
CCN1CCN(Cc2ccc(NC(=O)c3ccc(C)c(/C=C/c4cnc(Nc5cc(N6CCNCC6)nc(C)n5)cn4)c3)cc2C(F)(F)F)CC1 | 81%
COc1cc(N2CCC(N3CCN(C)CC3)CC2)ccc1Nc1ncc(Cl)c(Nc2ccccc2S(=O)(=O)C(C)C)n1 | 0%
CCOc1cc(N2CCC(N3CCCCC3)CC2)ccc1Nc1nc(Nc2ccccc2S(=O)(=O)C(C)C)c2cn[nH]c2n1 | 27%

Biological target: DDR2 (human) (UniProt Q16832)
Sequence (Q16832 whole entry, looked up): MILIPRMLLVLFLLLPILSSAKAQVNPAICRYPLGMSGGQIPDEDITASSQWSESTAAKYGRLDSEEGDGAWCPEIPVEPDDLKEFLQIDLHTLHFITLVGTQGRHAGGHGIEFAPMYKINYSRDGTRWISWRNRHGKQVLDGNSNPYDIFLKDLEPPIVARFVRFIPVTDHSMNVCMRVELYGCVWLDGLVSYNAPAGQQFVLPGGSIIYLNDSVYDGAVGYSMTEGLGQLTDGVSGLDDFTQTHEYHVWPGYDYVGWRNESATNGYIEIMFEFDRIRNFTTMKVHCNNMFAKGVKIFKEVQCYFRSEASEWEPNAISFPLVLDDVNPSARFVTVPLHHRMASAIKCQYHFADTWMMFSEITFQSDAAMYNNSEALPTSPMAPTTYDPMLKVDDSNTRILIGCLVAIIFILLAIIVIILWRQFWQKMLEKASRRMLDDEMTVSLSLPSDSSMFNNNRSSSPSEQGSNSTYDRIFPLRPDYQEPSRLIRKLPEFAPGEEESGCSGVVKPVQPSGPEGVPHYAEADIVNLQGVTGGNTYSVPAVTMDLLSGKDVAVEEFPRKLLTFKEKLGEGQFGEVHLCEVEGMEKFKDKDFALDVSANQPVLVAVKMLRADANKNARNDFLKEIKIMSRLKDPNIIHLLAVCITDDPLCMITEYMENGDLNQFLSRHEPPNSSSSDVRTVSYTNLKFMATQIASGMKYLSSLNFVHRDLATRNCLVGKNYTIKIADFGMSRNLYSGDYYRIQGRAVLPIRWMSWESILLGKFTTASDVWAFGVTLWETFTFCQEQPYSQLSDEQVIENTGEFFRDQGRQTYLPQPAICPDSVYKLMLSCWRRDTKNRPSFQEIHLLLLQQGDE
Assay: KINOMEscan competition binding
Settings: compound 10.0 µM

Structure (SMILES) | kinase still bound, per cent of control
CCN1CCN(Cc2ccc(NC(=O)c3ccc(C)c(/C=C/c4cnc(Nc5cc(N6CCNCC6)nc(C)n5)cn4)c3)cc2C(F)(F)F)CC1 | 0%
COc1cc(N2CCC(N3CCN(C)CC3)CC2)ccc1Nc1ncc(Cl)c(Nc2ccccc2S(=O)(=O)C(C)C)n1 | 14%
CCOc1cc(N2CCC(N3CCCCC3)CC2)ccc1Nc1nc(Nc2ccccc2S(=O)(=O)C(C)C)c2cn[nH]c2n1 | 93%
CCN1CCN(Cc2ccc(NC(=O)c3ccc(C)c(Oc4ccnc5[nH]ccc45)c3)cc2C(F)(F)F)CC1 | 5.1%

Test system: RET (human), P07949 [V804M]
Assay: KINOMEscan competition binding
Settings: compound 10.0 µM

Structure (SMILES) | kinase still bound, per cent of control
CCN1CCN(Cc2ccc(NC(=O)c3ccc(C)c(/C=C/c4cnc(Nc5cc(N6CCNCC6)nc(C)n5)cn4)c3)cc2C(F)(F)F)CC1 | 0.15%
